{"source": "patent US9802929B2", "about": "“Benzo five-membered nitrogen heterocyclic piperidine or piperazine derivatives and preparation methods and pharmaceutical compositions thereof” (Shenyang Haiwang Biotechnology Co., Ltd., priority 2012, dated 2017)", "key": {"Kunming mice": {"test_system": "Kunming mice", "assay": "Bone marrow micronucleus test", "details": "of 1000 polychromatic erythrocytes; oral, four days, test on the 5th day; II-36 120 mg/kg/day, cyclophosphamide 60 mg/kg/day", "procedure": "After four days of continuous administration, perform bone marrow micronucleus test on the 5th day.\nPositive contro, Cyclophosphamide 60 mg/kg/day; negative control, saline solution 0.1 ml/10 g/day. After four days of continuous administration, perform bone marrow micronucleus test on the 5th day.\nThe mice were sacrificed by cervical dislocation, and quickly stripped out of the femur and sternum;\nblood and muscles were removed, epiphysis was cleaned; then sternum bone marrow was transfer with a hemostat squeeze onto clean slides with drops of calf serum or wash the femoral the marrow with fetal calf serum directly onto clean slides; after mixing, adjust slides well; then put the adjusted and aired slide into a staining jar filled with methanol, and allow to fix for 15 minutes; and then take it out and place in air until dry out; then, use freshly prepared Giemsa application solution (one sample of Giemsa stock solution and nine samples of phosphate buffer pH 6.8), stained for 10 minutes to wash away slide dye with small stream of water, and then observe under a microscope after it is dried."}, "[1]": {"assay": "Acute toxicity test, simplified probability unit method", "details": "both sexes, mouse, in vivo; oral administration, Kunming mice"}, "[2]": {"test_system": "In-Vitro Vascular Smooth Muscle of Rabbits", "assay": "Relaxant effect on in vitro rabbit vascular smooth muscle contraction induced by hyperkalemia solution", "details": "Oryctolagus cuniculus, relaxation of rabbit aortic rings contracted by hyperkalemia solution (K+ 60 mmol/L)"}, "α1 receptors": {"test_system": "α1 receptors", "assay": "Antagonism of α receptor agonist (noradrenaline / phenylephrine) cumulative contraction of rabbit aorta, pA2", "source_text": "(§1) Cut the chest open quickly after stunning, strip out the descending aorta, then after removing the surrounding connective tissue and adipose tissue (if performed serotonin receptor antagonist experiments, endothelial cells should be removed using a smooth stainless steel bars), cut the vessels into 3-5 mm vascular ring, then pass the steel hook through the blood vessel ring, with one end is fixed to the vent hook and the other end connected to the tension transducer, then place the specimens into bath tube containing 20 mL of nutrient solution, and record tension change by tension transducer. Maintain tube temperature at 37±0.5° C., and pass bubbles (95% O2+5% CO2) into the solution as a speed of 1-2 bubbles/minute. Place an initial load of 1.5 g on the rings, and change nutrient every 20 minutes, then balance for 2 hours and start test after baseline readings are stabilized.\nAfter the tension is stabilized, record a certain length of the curve, and add NA (10^−8-10^−4 mol/L) to the tube until a maximum response is achieved, and then record the curve. Then wash the specimen with K—H solution repeatedly, balance for 1 h, add compound II-36 (3×10^−7 mol/L), and 20 minutes later, add NA following a same procedure. Mark NA contraction as ordinate using maximum response as 100% base. […] The larger the PA2 value, the stronger the antagonist effect. It is calculated based on the values of the attached figures by software.\nAfter the tension is stabilized, record a certain length of the curve, and add NA (10^−8-10^−4 mol/L) to the tube until a maximum response is achieved, and then record the curve. Then wash the specimens repeatedly with K—H solution, and refresh K—H solution every 20 minutes, and balance for 60 minutes to allow baseline values are stabilized; then add doxazosin (10^−7 mol/L) and after 15 minutes, add NA in the same way (10^−8-6×10^−5 mol/L). Mark NA contraction as ordinate using maximum response as 100% base. […] The PA2 value of positive control doxazosin is 7.52±0.04 against NA contraction of rabbit aorta.\n(§2) After the tension is stabilized, record a certain length of the curve, and add NA (3×10^−7-6×10^−5 mol/L) to the tube until a maximum response is achieved, and then record the curve. Then wash the specimen with K—H solution repeatedly, balance for 1 h, add compound II-65 (3×10^−6 mol/L), and 20 minutes later, add NA (3×10^−7-3×10^−4 mol/L) following a same procedure. Mark NA contraction as ordinate using maximum response as 100% base. […] PA2 value of compound II-65 is 6.02±0.13 against NA contraction effect on rabbit aorta.\nAfter above procedures, wash the specimen repeatedly with K—H solution, balance for 1 hour, add doxazosin (10^−7 mol/L), and add NA in the same way after 15 minutes. Mark NA contraction as ordinate using maximum response as 100% base. […] The PA2 value of positive control doxazosin is 7.16±0.24 against NA contraction of rabbit aorta.\nas §2, with “Phenylephrine (10^−6-6×10^−3” for “NA (3×10^−7-6×10^−5”, “II-68 (3×10^−8” for “II-65 (3×10^−6”, “Phenylephrine” for “NA (3×10^−7-3×10^−4 mol/L)”, “Phenylephrine” for “NA”, “II-68” for “II-65”, “8.45±0.03” for “6.02±0.13”"}, "Ca^2+ channel": {"test_system": "Ca^2+ channel", "assay": "Antagonism of CaCl2 cumulative contraction of rabbit aorta, pA2", "details": "CaCl2 cumulative contraction after Ca-free hyperkalemia depolarization", "source_text": "Calcium-free K—H solution: Remove CaCl2 from K—H solution, add an equal number of moles of KCl, and add EDTA^−2Na^+ 0.1 mmol/L, while the other components remain unchanged.\nCalcium-free hyperkalemia solution: Remove CaCl2 from hyperkalemia solution, add an equal number of moles of KCl, and add EDTA^−2Na^+ 0.1 mmol/L, while the other components remain unchanged.\nas §1\nAfter the tension is stabilized, wash the specimen three times and incubate with Ca-free K—H solution for 40 minutes; depolarize with Ca-free hyperkalemia solution for 20 minutes, and then add CaCl2 (10^−6-10^−2 mol/L) to the tube until a maximum response is achieved, and then record the curve. Then wash with K—H solution repeatedly, and replace with fresh K—H solution every 20 minutes; after balancing for 60 minutes and the baseline values are stabilized, wash the specimen again three times, and incubate with Ca-free K—H solution for 40 minutes; depolarize with Ca-free hyperkalemia solution for 20 minutes, and then add compound II-36 (3×10^−6 mol/L) to the tube, and incubate for 20 minutes; then add CaCl2 (10^−6-10^−2 mol/L) until a maximum response is achieved, and then record the curve. Mark CaCl2 contraction as ordinate using maximum response as 100% base. […] PA2 value of compound II-36 is 5.61±0.04 against CaCl2 contraction effect on rabbit aorta.\nAfter the tension is stabilized, wash the specimen three times and incubate with Ca-free K—H solution for 40 minutes; depolarize with Ca-free hyperkalemia solution for 20 minutes, and then add CaCl2 (10^−6-10^−2 mol/L) to the tube until a maximum response is achieved, and then record the curve. […]"}}, "note": "Where “and” joins values, the source holds several entries; their conditions need not be identical. Equal entries are not always repeated. Structures can show the parent of a compound that is named as a salt."}
{"smiles": "O=P1(N(CCCl)CCCl)NCCCO1", "note": "(stereo not drawn) [cyclophosphamide, Cyclophosphamide, reference compound]", "values": [{"measurement": "polychromatic erythrocytes with micronucleus", "setting": "Kunming mice", "result": "12 ‰"}]}
{"smiles": "Clc1cccc(C2CCN(CCCCn3nnc4ccccc43)CC2)c1", "note": "[II-2, N-(4-(1H-benzotriazole-1-yl)butyl)-4-(3-chlorophenyl)piperidine]", "values": [{"measurement": "LD50", "setting": "[1]", "result": 362, "unit": "mg/kg"}, {"measurement": "EC50", "setting": "[2]", "result": 15.1, "unit": "µM"}]}
{"smiles": "COc1cc2nc(N3CCN(C(=O)C4COc5ccccc5O4)CC3)nc(N)c2cc1OC", "note": "(stereo not drawn) [doxazosin, Doxazosin Mesylate, reference compound]", "values": [{"measurement": "PA2 value against Phenylephrine contraction", "setting": "α1 receptors; Phenylephrine cumulative contraction", "result": "7.52±0.04"}, {"measurement": "PA2 value against NA contraction", "setting": "α1 receptors; noradrenaline (NA) cumulative contraction", "result": "7.52±0.04 and 7.16±0.24"}]}
{"smiles": "CCOC(=O)C1=C(COCCN)NC(C)=C(C(=O)OC)C1c1ccccc1Cl", "note": "(stereo not drawn) [amlodipine, Amlodipine Besylate, reference compound]", "values": [{"measurement": "PA2 value against CaCl2 contraction", "setting": "Ca^2+ channel", "result": "6.99±0.05 and 7.15±0.288"}]}
